Target: Serine-protein kinase ATM (Homo sapiens, UniProt Q13315)
Assay: Inhibition of ATM (unknown origin) assessed as ATM-dependent phosphorylation using GST-p53 ser15 as substrate

Serine-protein kinase ATM, sequence (Q13315 whole entry): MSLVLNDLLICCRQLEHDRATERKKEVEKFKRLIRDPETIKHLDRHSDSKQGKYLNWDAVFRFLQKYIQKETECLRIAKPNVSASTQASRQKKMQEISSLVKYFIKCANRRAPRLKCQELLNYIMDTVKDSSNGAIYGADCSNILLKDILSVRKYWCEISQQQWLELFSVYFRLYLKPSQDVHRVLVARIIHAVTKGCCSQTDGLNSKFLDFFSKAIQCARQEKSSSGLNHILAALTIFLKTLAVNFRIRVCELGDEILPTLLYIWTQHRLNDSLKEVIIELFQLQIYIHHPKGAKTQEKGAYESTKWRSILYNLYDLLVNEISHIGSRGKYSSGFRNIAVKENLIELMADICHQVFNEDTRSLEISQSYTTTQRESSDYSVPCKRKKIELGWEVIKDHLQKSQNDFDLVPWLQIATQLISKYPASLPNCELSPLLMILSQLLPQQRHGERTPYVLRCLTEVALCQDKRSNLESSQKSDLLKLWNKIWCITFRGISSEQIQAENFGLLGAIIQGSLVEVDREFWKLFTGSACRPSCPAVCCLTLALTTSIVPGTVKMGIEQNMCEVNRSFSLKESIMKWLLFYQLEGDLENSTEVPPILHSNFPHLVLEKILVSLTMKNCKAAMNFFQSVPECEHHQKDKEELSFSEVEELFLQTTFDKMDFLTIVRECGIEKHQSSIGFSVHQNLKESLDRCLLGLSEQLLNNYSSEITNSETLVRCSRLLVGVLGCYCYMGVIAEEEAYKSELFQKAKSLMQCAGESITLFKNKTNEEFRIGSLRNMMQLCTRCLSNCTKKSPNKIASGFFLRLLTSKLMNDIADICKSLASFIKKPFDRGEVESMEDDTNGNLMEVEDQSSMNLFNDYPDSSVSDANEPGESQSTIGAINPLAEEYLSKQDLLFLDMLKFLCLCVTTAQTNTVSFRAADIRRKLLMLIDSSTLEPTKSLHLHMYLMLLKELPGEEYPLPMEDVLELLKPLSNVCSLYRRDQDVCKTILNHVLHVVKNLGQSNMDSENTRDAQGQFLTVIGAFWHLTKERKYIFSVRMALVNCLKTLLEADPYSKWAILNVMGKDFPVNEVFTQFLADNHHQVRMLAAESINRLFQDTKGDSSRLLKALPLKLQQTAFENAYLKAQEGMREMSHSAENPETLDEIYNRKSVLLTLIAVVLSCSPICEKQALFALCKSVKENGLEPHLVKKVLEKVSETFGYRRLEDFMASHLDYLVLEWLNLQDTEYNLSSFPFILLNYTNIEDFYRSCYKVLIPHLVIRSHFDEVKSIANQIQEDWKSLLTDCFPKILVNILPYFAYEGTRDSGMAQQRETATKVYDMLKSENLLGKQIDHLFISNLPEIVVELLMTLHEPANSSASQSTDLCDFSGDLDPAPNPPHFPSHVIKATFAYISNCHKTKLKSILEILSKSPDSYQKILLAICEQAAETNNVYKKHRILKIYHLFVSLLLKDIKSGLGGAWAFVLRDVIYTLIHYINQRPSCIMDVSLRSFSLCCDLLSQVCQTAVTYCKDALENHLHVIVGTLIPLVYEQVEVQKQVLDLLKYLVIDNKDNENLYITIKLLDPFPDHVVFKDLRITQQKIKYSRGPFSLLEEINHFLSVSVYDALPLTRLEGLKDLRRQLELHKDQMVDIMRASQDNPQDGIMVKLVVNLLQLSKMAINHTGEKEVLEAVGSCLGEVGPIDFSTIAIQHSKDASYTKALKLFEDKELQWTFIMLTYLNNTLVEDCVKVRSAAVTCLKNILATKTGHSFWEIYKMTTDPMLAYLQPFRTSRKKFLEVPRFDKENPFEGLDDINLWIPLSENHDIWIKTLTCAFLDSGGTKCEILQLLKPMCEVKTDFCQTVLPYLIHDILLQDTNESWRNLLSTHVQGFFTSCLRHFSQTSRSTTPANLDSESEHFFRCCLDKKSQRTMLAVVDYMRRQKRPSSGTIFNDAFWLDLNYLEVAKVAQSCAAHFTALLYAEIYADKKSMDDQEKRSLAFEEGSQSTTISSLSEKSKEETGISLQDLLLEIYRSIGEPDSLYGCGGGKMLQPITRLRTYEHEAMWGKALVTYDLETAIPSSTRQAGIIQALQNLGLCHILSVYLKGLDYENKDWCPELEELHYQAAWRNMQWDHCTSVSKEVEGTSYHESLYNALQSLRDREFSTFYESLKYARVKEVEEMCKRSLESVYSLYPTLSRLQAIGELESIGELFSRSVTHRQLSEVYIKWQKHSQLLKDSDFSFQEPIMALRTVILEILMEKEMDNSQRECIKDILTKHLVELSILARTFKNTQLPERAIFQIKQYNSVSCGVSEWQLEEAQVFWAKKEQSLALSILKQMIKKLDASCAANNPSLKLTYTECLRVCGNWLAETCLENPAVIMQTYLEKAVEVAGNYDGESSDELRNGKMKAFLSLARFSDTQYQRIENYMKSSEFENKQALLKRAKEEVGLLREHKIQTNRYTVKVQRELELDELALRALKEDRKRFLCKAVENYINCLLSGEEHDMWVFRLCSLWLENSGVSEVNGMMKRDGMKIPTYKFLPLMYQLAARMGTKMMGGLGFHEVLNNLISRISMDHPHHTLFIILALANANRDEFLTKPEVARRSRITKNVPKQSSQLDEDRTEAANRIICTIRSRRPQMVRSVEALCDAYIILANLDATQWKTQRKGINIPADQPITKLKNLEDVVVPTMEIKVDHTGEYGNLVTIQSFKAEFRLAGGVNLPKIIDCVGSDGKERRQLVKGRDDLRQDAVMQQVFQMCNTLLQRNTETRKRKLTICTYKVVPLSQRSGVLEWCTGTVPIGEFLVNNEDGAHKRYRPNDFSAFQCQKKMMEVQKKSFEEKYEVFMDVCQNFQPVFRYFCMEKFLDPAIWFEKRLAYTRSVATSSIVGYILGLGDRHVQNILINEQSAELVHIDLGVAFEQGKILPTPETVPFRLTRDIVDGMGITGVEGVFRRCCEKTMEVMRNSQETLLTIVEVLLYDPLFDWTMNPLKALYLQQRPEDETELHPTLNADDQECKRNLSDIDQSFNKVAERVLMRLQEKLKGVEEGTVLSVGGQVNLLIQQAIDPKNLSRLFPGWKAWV

IC50: 0.09 nM
Structure (SMILES): CC(C)n1c(=O)n(C)c2cnc3cc(F)c(-c4ccc(OCCCN5CCCCC5)nc4)cc3c21 [Azd-1390]
